Positions of bridges follow the written chain, without caps; N, C: chain ends. Non-standard residues stand in square brackets, D forms with d. Residues, ends and D or L forms follow the SMILES beside them. hArg = N=C(N)NCCCC[C@H](N)C(=O)O; Mpa = O=C(O)CCS
Legend:
[1] = tested on: platelets in citrated whole blood; assay: Platelet adhesion under shear stress (cone and plate); assay type: cell-based, human; conditions: preferred Compound 50 μM, tirofiban 10 μM; 1800 s^−1; n=3
Experimental: Platelet Adhesion Under Shear Stress. A cone and plate system (Diamed, Cressier, Switzerland) is used to assess the effect of the Compounds on platelet deposition under shear stress. 0.25 ml of citrated whole blood is incubated with nothing, DMSO (0.5%), the Compounds (50 μM), or tirofiban (10 μM) for 15 min at 22° C. and placed in polystyrene wells (16 mm diameter, Nunc). A constant uniform shear force of 1800 s^−1 was applied across the well using a teflon cone for 2 min at 22° C. Wells are washed with buffer, fixed with 1% paraformaldehyde, stained with Wright's Stain (Sigma-Aldrich), and analyzed for platelet adhesion using a 20× objective in an inverted microscope (IX51, Olympus, Center Valley, Pa.). Platelet adhesion is assessed by measuring the area occupied by platelets in each of four uniformly selected viewing areas in duplicate wells using image analysis software (SlideBook, Intelligent Imaging Innovations, Denver, Colo.).

purified αIIbβ3 [2] = molecular target: T1, purified αIIbβ3 (Homo sapiens, UniProt P05106+P08514); assay: Fibrinogen binding to purified αIIbβ3; conditions: for effect of activating mAb AP5 on fibrinogen binding to purified αIIbβ3 in the presence of the substance: AP5 60 μg/ml
T1 construct: purchased Enzyme Research Laboratories, South Bend, Ind
Experimental: (§1) Fibrinogen Binding to Purified αIIbβ3. The anti-β3 mAb 7H2 (10 μg/ml) is adsorbed to polystyrene microtiter plate wells overnight at 4° C., and wells are then blocked with 3.5% BSA for 1 h at 22° C. Purified αIIbβ3 (Enzyme Research Laboratories, South Bend, Ind.) is diluted in buffer A (50 mM Tris/HCl, 100 mM NaCl, 1 mM CaCl2, 1 mM MgCl2, 1% BSA, 0.0035% Triton X-100) to 10 μg/ml, and is allowed to adhere to wells coated with mAb 7H2 for 2 h at 37° C. Wells are then washed 3 times with buffer A. Fibrinogen, prepared in buffer A (20 μg/ml) in the presence or absence of mAb AP5 (60 μg/ml), is incubated in plate wells for 2 h at 37° C. with or without the Compounds or control solutions. Wells are washed 3 times with buffer A and then incubated with a horseradish peroxidase-conjugated polyclonal anti-fibrinogen antibody (1:1,000 in buffer A; DAKO, Glostrup, Denmark) for 1 h at 22° C. Wells are washed 3 times, 200 μl of a peroxidase substrate [3,3′,5,5′-tetramethylbenzidine (TMB), Sigma-Aldrich] is added, the reaction is terminated after 30 min by acidification with 50 μl 0.5 M H2SO4, and absorbance is determined at 450 nm. For priming experiments the procedure is the same except: 1) αIIbβ3 is allowed to adhere in the presence of either eptifibatide (10 μM), RGDS (10 μM; Rockefeller University Proteomics Resource Center), the Compounds (100 μM), or DMSO (1%); 2) wells are washed 10 times after αIIbβ3 adhesion; and 3) absorbance is determined at 655 nm after 10 min.

[3] = tested on: platelets in citrated PRP; assay: Platelet aggregation in 96-well plates (secondary screen); assay type: cell-based, human; conditions: induced by 5 μM ADP; 16.6 μM compound
Experimental: Platelet Preparation from Peripheral Blood. After informed consent is obtained from healthy human donors who have not taken any medication known to inhibit platelet function for at least 7 days, peripheral venous blood is collected via a 19-gauge butterfly needle into tubes containing either a 10% volume of sodium citrate (3.8%), or a 15% volume of Acid-Citrate-Dextrose (ACD-A, 74.8 mM sodium citrate, 38 mM citric acid, 124 mM dextrose). Platelet-rich plasma (PRP) is prepared by centrifugation at 650 g for 4 minutes at 22° C. and is gently removed with a plastic pipette. Platelet-poor plasma (PPP) is prepared by further centrifugation of the remaining blood at 3000 g for 10 minutes at 22° C. Washed platelets (WP) are prepared by treating ACD-anticoagulated PRP with 1 μM PGE1, adding 0.10 vol ACD, and centrifuge at 1200 g for 8 min at 22° C. […] Platelet counts are determined with the automated particle counter (ADVIA 120 hematological analyzer Bayer).
Platelet Aggregation in 96-well Plates. […] A 66.6 μl sample of citrated PRP from volunteer blood donors is added to compound-containing wells, and plates are allowed to equilibrate to 37° C. in the plate reader (SpectraMax) for 10 minutes. […] Absorbance is measured at 563 nm every 10 seconds with shaking for 3 s between reads for 8 minutes. Percent aggregation is calculated as (AbsPRP−Abssample)/(AbsPRP−AbsPPP).

platelets [4] = assay: Platelet aggregation in aggregometer; assay type: cell-based, human; conditions: for IC50: Homo sapiens, Platelet
Experimental: Platelet Preparation from Peripheral Blood. After informed consent is obtained from healthy human donors who have not taken any medication known to inhibit platelet function for at least 7 days, peripheral venous blood is collected via a 19-gauge butterfly needle into tubes containing either a 10% volume of sodium citrate (3.8%), or a 15% volume of Acid-Citrate-Dextrose (ACD-A, 74.8 mM sodium citrate, 38 mM citric acid, 124 mM dextrose). Platelet-rich plasma (PRP) is prepared by centrifugation at 650 g for 4 minutes at 22° C. and is gently removed with a plastic pipette. Platelet-poor plasma (PPP) is prepared by further centrifugation of the remaining blood at 3000 g for 10 minutes at 22° C. Washed platelets (WP) are prepared by treating ACD-anticoagulated PRP with 1 μM PGE1, adding 0.10 vol ACD, and centrifuge at 1200 g for 8 min at 22° C. The platelet pellet is resuspended in HBMT. Platelet counts are determined with the automated particle counter (ADVIA 120 hematological analyzer Bayer).
Platelet Aggregation in Aggregometer. Citrated PRP is incubated with compounds or controls for 15 min 37° C. in 300-500 μl vols in glass aggregometer tubes. Agonists are added after 30 s equilibration in the aggregometer (Kowa) and light transmittance is measured for 8 min. Agonists include ADP, collagen (native type 1 collagen fibrils), restocetin, arachidonic acid, and thrombin receptor activating peptide [TRAP (SFLLRN)].

αIIbβ3 = molecular target: T2, αIIbβ3 (Homo sapiens, UniProt P05106+P08514); assay: LIBS-specific mAb binding to resting platelets (flow cytometry); assay type: cell-based; conditions: compound 100 μM
T2 construct: endogenous in cells; host or cells: washed resting platelets from platelet-rich plasma
Experimental: mAb Binding. PRP anticoagulated with ACD is centrifuged at 1200 g for 8 min and is resuspended in HBMT containing 2 mM Ca^2+, 1 mmMg^2+. Platelet count is adjusted to 250,000/μl. Platelets are incubated with the Compounds (100 μM), tirofiban (100 μM), EDTA (10 mM), or 10E5 (10 μg/ml) for 15 min, at 37° C. Samples are incubated with Fluorescently-labeled monoclonal antibodies (PMI-1, LIBS-1, AP5, 7H2, 7E3, or 10E5; Alexa-488-conjugated, Invitrogen) at 20 μl, 5 μg/ml final concentration for 30 min at room temperature in the dark before diluting 1:10 for analysis on a FACSCalibur flow cytometer (Becton Dickson). Antibody binding is reported as the geometric mean fluorescence intensity; nonspecific binding is determined by adding a 50-fold excess of unlabeled antibody before adding labeled antibody.

platelets [5] = assay: Fluorescent fibrinogen binding to platelets; assay type: cell-based; conditions: Homo sapiens, Platelet; AP5 60 μg/ml; read-out: IC50, fibrinogen binding to platelets induced by activating LIBS mAb AP5
Experimental: (§2) Fluorescent Fibrinogen Binding. Washed platelets at 250,000/μl or αIIbβ3-expressing HEK293 cells at 10×10^6/ml in HBMT with 2 mM Ca^2+/1 mM Mg^2+ are incubated with compounds or controls and 200 μg/ml fluorescent fibrinogen (Invitrogen) with or without 60 μg/ml of the activating mAb AP5 for 30 min at 22° C. in the dark. Unbound fibrinogen is removed by centrifugation at 1800 rpm for 3 min and the platelets are resuspended in HBMT before FACS analysis.

[6] = molecular target: T3, αIIbβ3-expressing HEK293 cells (Homo sapiens, UniProt P05106+P08514); assay: Fluorescent fibrinogen binding to HEK293 cells; assay type: cell-based; conditions: AP5 60 μg/ml; n=3; read-out: IC50, AP5-induced fibrinogen binding to HEK293 cells
T3 construct: expressed in transfected cells; host or cells: HEK293
Experimental: as §2

purified αIIbβ3 [7] = molecular target: T1, purified αIIbβ3; assay: Priming of fibrinogen binding to purified αIIbβ3; conditions: eptifibatide 10 μM, RGDS 10 μM, Compounds 100 μM
Experimental: as §1

[8] = molecular target: T4, HEK293 cells expressing αIIbβ3 (Homo sapiens, UniProt P05106+P08514); assay: HEK293 cell adhesion to fibrinogen; assay type: cell-based; conditions: compound 100 μM, fibrinogen 50 μg/ml, 2 mM Ca2+/1 mM Mg2+, read-out: inhibition of HEK293 cell adhesion to immobilized fibrinogen
T4 construct: expressed in transfected cells; host or cells: HEK293
Experimental: (§3) Platelet and Cell Adhesion. Platelets are prepared from ACD-anticoagulated blood as previously described. Cells, either CS1 (αVβ3-expressing) or HEK293 (αIIbβ3-expressing) are separated from culture media by centrifugation at 200 g, 4 min. Cells are resuspended in HBMT containing 1 mM MgCl2 (CS1 cells) and/or 2 mM CaCl2 (HEK293 cells). Polystyrene 96-well microtiter plates (Nunc) are coated with either fibrinogen (50 μg/ml), vitronectin (5 μg/ml), or collagen (33 μg/ml, rat tail type 1, Becton Dickson) for 1 h, and blocked with HBMT for at least 1 h. Platelets and cells are treated with compounds or control solutions for 15 min at 37° C. before they are added to the microtiter wells. After adhering for 1 h at either 22° C. (platelets) or 37° C. (cells), non-adherent platelets or cells are removed by washing 3 times with HBMT containing the same ion composition as the buffer used for adhesion. Adherent platelets or cells are quantified by their endogenous acid phosphatase activity on p-nitrophenyl phosphate (pNPP) (1 mg/ml in 0.1 M sodium citrate, 0.1% Triton X-100, pH 5.4). In other experiments, 8-chambered glass coverslips (Nunc) are coated with collagen (33 μg/ml) for 1 h at 22° C. Washed platelets are allowed to adhere for 1 h at 22° C. and the coverslips are stained with the Alexa-488-conjugated β3-specific mAb 7H2. […]

[9] = tested on: αVβ3-expressing CS1 cells; assay: CS1 cell adhesion to vitronectin; assay type: cell-based; conditions: mAbs 20 μg/ml, compound 100 μM; Mg2+
Experimental: as §3

T1 sequence (P08514 32-887 limits assumed): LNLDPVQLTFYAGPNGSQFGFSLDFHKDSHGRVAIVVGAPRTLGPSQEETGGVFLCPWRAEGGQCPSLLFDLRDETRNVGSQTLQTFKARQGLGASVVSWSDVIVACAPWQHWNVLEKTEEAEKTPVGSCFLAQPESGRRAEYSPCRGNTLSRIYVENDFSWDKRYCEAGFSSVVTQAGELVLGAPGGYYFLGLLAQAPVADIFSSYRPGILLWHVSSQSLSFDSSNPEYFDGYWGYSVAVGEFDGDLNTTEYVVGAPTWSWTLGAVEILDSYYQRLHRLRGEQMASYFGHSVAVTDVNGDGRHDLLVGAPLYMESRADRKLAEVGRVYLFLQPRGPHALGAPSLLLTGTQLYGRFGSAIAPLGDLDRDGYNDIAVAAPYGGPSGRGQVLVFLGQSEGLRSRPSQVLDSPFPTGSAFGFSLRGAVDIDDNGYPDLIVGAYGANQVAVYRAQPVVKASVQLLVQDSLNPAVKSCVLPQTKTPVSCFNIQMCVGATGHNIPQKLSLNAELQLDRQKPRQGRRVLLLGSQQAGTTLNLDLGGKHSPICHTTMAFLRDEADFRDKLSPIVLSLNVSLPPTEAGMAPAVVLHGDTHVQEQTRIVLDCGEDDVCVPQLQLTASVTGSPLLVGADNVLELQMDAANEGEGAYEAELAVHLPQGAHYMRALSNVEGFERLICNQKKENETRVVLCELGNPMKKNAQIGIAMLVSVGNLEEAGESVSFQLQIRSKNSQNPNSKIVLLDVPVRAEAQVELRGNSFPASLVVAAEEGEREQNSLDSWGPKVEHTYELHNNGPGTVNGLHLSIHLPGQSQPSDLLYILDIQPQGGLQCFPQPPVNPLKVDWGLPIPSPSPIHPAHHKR
T1 sequence (P08514 891-1039 partner limits assumed): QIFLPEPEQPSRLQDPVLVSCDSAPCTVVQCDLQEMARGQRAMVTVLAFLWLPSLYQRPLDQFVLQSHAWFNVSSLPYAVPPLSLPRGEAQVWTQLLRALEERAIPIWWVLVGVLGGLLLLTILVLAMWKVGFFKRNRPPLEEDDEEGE
T1 sequence (P05106 27-788): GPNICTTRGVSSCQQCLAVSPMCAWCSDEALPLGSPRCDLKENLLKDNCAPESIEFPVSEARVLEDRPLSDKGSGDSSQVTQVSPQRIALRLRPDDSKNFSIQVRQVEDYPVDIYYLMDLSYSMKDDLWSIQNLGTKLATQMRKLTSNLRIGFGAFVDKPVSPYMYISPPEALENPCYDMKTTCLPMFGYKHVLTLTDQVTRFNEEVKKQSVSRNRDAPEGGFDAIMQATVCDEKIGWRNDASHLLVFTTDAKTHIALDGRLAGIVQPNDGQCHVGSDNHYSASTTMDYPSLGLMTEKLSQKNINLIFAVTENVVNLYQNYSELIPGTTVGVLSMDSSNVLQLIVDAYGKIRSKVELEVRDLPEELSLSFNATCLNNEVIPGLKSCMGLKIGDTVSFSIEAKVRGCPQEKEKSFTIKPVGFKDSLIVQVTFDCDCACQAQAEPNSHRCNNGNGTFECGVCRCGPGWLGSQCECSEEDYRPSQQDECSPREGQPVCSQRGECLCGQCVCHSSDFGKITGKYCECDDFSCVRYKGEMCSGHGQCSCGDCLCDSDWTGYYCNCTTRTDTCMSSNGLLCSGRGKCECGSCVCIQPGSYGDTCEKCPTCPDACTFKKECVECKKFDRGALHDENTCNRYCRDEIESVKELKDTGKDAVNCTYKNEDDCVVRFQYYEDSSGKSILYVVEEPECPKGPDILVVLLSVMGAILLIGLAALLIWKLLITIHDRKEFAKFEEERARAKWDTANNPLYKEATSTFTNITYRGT
T2 sequence (P08514 32-887 limits assumed): as the sequence (P08514 32-887 limits assumed) above
T2 sequence (P08514 891-1039 partner limits assumed): as the sequence (P08514 891-1039 partner limits assumed) above
T2 sequence (P05106 27-788): as the sequence (P05106 27-788) above
T4 sequence (P08514 32-887 limits assumed): as the sequence (P08514 32-887 limits assumed) above
T4 sequence (P08514 891-1039 partner limits assumed): as the sequence (P08514 891-1039 partner limits assumed) above
T4 sequence (P05106 27-788): as the sequence (P05106 27-788) above
T3 sequence (P08514 32-887 limits assumed): as the sequence (P08514 32-887 limits assumed) above
T3 sequence (P08514 891-1039 partner limits assumed): as the sequence (P08514 891-1039 partner limits assumed) above
T3 sequence (P05106 27-788): as the sequence (P05106 27-788) above

CCCCS(=O)(=O)N[C@@H](Cc1ccc(OCCCCC2CCNCC2)cc1)C(=O)O [tirofiban, reference compound]
inhibition of platelet deposition under shear, area occupied by platelets vs DMSO [1]: 99±1% | effect of activating mAb AP5 on fibrinogen binding to purified αIIbβ3 in the presence of the substance (purified αIIbβ3 [2]): does not increase | fibrinogen binding to purified αIIbβ3 in the presence of the substance (purified αIIbβ3 [2]; microtiter plates): blocked

CCc1nn2c(=O)cc(N3CCNCC3)nc2s1 [Preferred Compound, 2-ethyl-7-(piperazin-1-yl)-5H-[1,3,4]thiadiazolo-[3,2-a]pyrimidin-5-one]
reduction of the initial slope of aggregation [3]: 84% | IC50 (platelets [4]; induced by 5 μM ADP, read-out: IC50, aggregation of platelets in citrated PRP): 13 ± 5 µM | IC50 (platelets [4]; induced by 5 μM TRAP, n=3, read-out: IC50, aggregation of washed platelets): 3.4 ± 0.4 µM | IC50 (platelets [4]; induced by 5 μM TRAP, read-out: IC50, aggregation of platelets in citrated PRP): 29 ± 6 µM | IC50 (platelets [4]; induced by 1 mM arachidonic acid, read-out: IC50, aggregation of platelets in citrated PRP): 8.5 ± 5.7 µM | platelet aggregation in PRP induced by collagen (platelets [4]; compound 100 μM, collagen 2 μg/ml): completely inhibits | later phase of ristocetin-induced aggregation of PRP (platelets [4]; ristocetin 1.8 mg/ml, data not shown): does inhibit | initial slope (initial wave) of ristocetin-induced agglutination/aggregation of PRP (platelets [4]; ristocetin 1.8 mg/ml, mAb 6D1 20 μg/ml): does not inhibit | inhibition of platelet deposition under shear, area occupied by platelets vs DMSO [1]: 87±10% | binding of β3 LIBS-specific mAb AP5 compared with untreated platelets (αIIbβ3): do not differ significantly | binding of β3 LIBS-specific mAb LIBS-1 compared with untreated platelets (αIIbβ3): do not differ significantly | mAb Binding (% of tirofiban), AP5 (β3) (αIIbβ3; resting washed platelets): 26 ± 5.9 % of tirofiban | mAb Binding (% of tirofiban), LIBS-1 (β3) (αIIbβ3; resting washed platelets): 5.7 ± 6.3 % of tirofiban | mAb Binding (% of tirofiban), PMI-1 (αIIb) (αIIbβ3; resting washed platelets): 44 ± 8.7 % of tirofiban | mAb Binding (% of tirofiban), PMI-1 (αIIb) (αIIbβ3; resting washed platelets, listed as 2-ethyl-7-(piperazin-1-yl)-5H-[1,3,4]thiadiazolo-[3,2-a]pyrimidin-5-one): 44 % of tirofiban | IC50 (platelets [5]): 29 ± 2 µM | IC50 [6]: 21 ± 0.3 µM | effect of activating mAb AP5 on fibrinogen binding to purified αIIbβ3 in the presence of the substance (purified αIIbβ3 [2]): does not increase | fibrinogen binding to purified αIIbβ3 in the presence of the substance (purified αIIbβ3 [2]; microtiter plates): blocked | IC50 (purified αIIbβ3 [2]; microtiter plates, n=3): 1.6 ± 0.4 µM | fibrinogen binding after transient exposure of αIIbβ3 (priming), compared to untreated αIIbβ3 (purified αIIbβ3 [7]): does not increase | inhibition at 100 µM [8]: 53 ± 4% | CS1 cell adhesion to immobilized vitronectin [9]: adhere

RGDS
fibrinogen binding after transient exposure of αIIbβ3 (priming), compared to untreated αIIbβ3 (purified αIIbβ3 [7]): 130±7%

N=C(N)NCCCC[C@@H]1NC(=O)CCSSC[C@@H](C(N)=O)NC(=O)[C@@H]2CCCN2C(=O)[C@H](Cc2c[nH]c3ccccc23)NC(=O)[C@H](CC(=O)O)NC(=O)CNC1=O [eptifibatide] ([Mpa][hArg]GDWPC-NH2; disulfide 1-7)
fibrinogen binding after transient exposure of αIIbβ3 (priming), compared to untreated αIIbβ3 (purified αIIbβ3 [7]): 150±31%
